Each structure is given as a SMILES string.

One test relates to HepG2. The test can be described thus: Cytotoxicity against human HepG2 cells by SRB assay. It counts as functional, cell-based.
The test system of a further test is A549. The test can be described thus: Cytotoxicity against human A549 cells by SRB assay. The test is classed as functional, cell-based. A general note: In SRB staining, fixed cells bind dye roughly in proportion to their protein.

`CC(C)=CC(=O)NC1=CC(=O)[C@]2(C)C[C@H](O)[C@H](C)N12` [BOHEMAMINE B]: the IC50 came out at 181 µM in the test with HepG2 and 502 µM in the test with A549.

`CC(C)=CC(=O)NC1=C(CC2=C(NC(=O)C=C(C)C)N3[C@@H](C)[C@H]4O[C@H]4[C@@]3(C)C2=O)C(=O)[C@]2(C)C[C@H](O)[C@H](C)N12`: the IC50 came out at 0.3 µM in the test with HepG2 and 1.1 µM with A549.

For the compound `CC(C)=CC(=O)NC1=CC(=O)[C@]2(C)[C@@H]3O[C@@H]3[C@H](C)N12` [BOHEMAMINE], the results for the IC50 in the test on HepG2 and with A549 were 29.7 µM and 290 µM, respectively.

`COc1cccc2c1C(=O)c1c(O)c3c(c(O)c1C2=O)C[C@@](O)(C(=O)CO)C[C@@H]3O[C@H]1C[C@H](N)[C@H](O)[C@H](C)O1` [DOXORUBICIN] registered an IC50 with A549 of 1.4 µM.

As for `CC(C)=CC(=O)NC1=C(CC2=C(NC(=O)C=C(C)C)N3[C@@H](C)[C@H]4O[C@H]4[C@@]3(C)C2=O)C(=O)[C@]2(C)[C@H](O)C[C@H](C)N12`, the results for the IC50 in the test on HepG2 and with A549 were 7.3 µM and 20.2 µM, respectively.

For the compound `CC(C)=CC(=O)NC1=C(CC2=C(NC(=O)C=C(C)C)N3[C@@H](C)[C@H]4O[C@H]4[C@@]3(C)C2=O)C(=O)[C@]2(C)[C@@H]3O[C@@H]3[C@H](C)N12`, the IC50 in the test on HepG2 came to 10.8 µM; in the test on A549 it was 39.2 µM.

In general, IC50 refers to the concentration needed to halve the response being measured. Higher therefore signals lower potency.

The record behind these values is ChEMBL document CHEMBL4130510, “Cytotoxic Dibohemamines D-F from a Streptomyces Species” (J Nat Prod, 2017).
